Experiments:
[1] = biological target: T1, Ba/F3 Pro B-cell line expressing TEL-human Tyro3 fusion domain (Homo sapiens, UniProt Q06418); type: cell-based; conditions: cell survival, 48 h, CellTiter-Glo
T1 sequence (Q06418 518-790 limits assumed): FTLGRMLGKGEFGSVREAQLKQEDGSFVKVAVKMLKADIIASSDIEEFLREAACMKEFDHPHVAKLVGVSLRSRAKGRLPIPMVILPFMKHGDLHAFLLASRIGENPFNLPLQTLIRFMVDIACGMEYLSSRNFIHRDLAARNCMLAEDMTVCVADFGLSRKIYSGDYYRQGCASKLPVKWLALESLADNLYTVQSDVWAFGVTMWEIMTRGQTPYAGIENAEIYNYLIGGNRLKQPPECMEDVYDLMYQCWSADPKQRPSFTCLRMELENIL
Protocol: (§1) Assay 5—Ba/F3 Cell Survival Assays.
(§2) The inhibitory potencies of compounds were assessed in a Ba/F3 cell survival assay, using the Ba/F3 Pro B-cell line, recombinantly expressing a BCR-human AXL kinase domain fusion protein (pACD320/AXL, Advanced Cellular Dynamics Inc), TEL-human MERTK fusion domain (pACD1000/MERTK, Advanced Cellular Dynamics Inc), TEL-human Tyro3 fusion domain (pACD1000/TYRO3, Advanced Cellular Dynamics Inc), or control TEL-none (ACD320, Advanced Cellular Dynamics Inc) BRC-none constructs (ACD1000, Advanced Cellular Dynamics Inc). 10 ng/mL recombinant murine IL3 (R&D, 403-ML-010) was included in the media when propagating negative control TEL-none or BCR-none lines only. Cells were maintained in RMPI 1640 (Corning 15-040-CV) culture media containing 10% heat inactivated semi-synthetic FBS (RMBIO FGR-BBT), 2 mM L-Glutamine (Sigma, G7513), 100 IU/mL Penicillin-10 mg/mL Streptomycin (Sigma, P4333), and 500 ng/mL Puromycin (Sigma, P8833). Experiments were performed in 50 μl growth media, including the test compounds of interest, and dispensing 5000 cells/well in logarithmic-phase growth into a 384 well white Optiplate (Perkin Elmer 6007299). […] The final assay DMSO concentration was 0.25%. Compound incubations were conducted for 48 h at 37° C./5% CO2, after which cell plate was equilibrated at room temperature for 20 minutes prior to assessing viability. 15 μl of Promega CellTiter-Glo reagent (G7572) was added to each well for 2 min on an orbital shaker to induce cell lysis.
(§3) The plate was then equilibrated for 5 min at room temperature and luminescence read on a BMG Pherastar FSX using the LUM plus optic module. Data were normalised to measurements in the absence of competing compound (0% inhibition). Competition curves were then fit to a 4 parameter logistic equation including a variable slope factor to determine the IC50 (compound concentration causing a half-maximal inhibition of cell survival).

[2] = biological target: T2, human MERTK cytoplasmic domain (Homo sapiens, UniProt Q12866); assay: biochemical; conditions: 30 uM ATP; read-out: Assay 1a Mer IC50 30 uM ATP
T2 construct: human MERTK cytoplasmic domain (Carna Biosciences 08-108); purchased Carna Biosciences 08-108
Protocol: Assay 1a—MERTK HTRF KinEASE-TK Assay
The enzymatic reaction was carried out for 30 min at room temperature. 10 μL TK Antibody-Cryptate/Streptavidin-XL665 (Cisbio 610SAXLG) was then added for 60 min, including EDTA containing detection buffer (Cisbio 62SDBRDF) to stop the reaction.

[3] = biological target: T3, human AXL cytoplasmic domain (Homo sapiens, UniProt P30530); assay: Assay 1b AXL HTRF KinEASE-TK assay; type: biochemical
T3 construct: human AXL cytoplasmic domain (Thermo Fisher A31515); purchased Thermo Fisher A31515
T3 sequence (P30530 473-894 limits assumed): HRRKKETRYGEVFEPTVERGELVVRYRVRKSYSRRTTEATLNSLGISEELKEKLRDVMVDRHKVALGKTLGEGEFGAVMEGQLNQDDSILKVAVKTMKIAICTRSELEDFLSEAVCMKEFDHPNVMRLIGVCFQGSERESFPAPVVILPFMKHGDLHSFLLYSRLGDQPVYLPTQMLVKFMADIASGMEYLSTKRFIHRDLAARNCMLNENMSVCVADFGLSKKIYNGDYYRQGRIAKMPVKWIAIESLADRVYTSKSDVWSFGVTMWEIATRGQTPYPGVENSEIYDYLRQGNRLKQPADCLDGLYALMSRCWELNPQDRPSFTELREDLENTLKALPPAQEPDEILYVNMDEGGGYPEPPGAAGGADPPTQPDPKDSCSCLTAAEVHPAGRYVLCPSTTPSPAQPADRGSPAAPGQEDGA
Protocol: Assay 1b—AXL HTRF KinEASE-TK Assay
Compound inhibition of human AXL cytoplasmic domain (Thermo Fisher A31515) enzymatic activity was tested via the HTRF KinEASE-tyrosine kinase (TK) kit (Cisbio 62TK0PEC). Experiments were performed in 20 μl enzymatic buffer (Cisbio 62EZBFDD) supplemented with 5 mM MgCl2, 1 mM MnCl2, 1 mM DTT, 50 nM SEB (Cisbio, 61SEBALB), with 5 nM of AXL and the test compounds of interest. […] The enzymatic reaction was carried out for 30 min at room temperature. 10 μL TK Antibody-Cryptate/Streptavidin-XL665 (Cisbio 610SAXLG) was then added for 60 min, including EDTA containing detection buffer (Cisbio 62SDBRDF) to stop the reaction. The plate was read on a BMG Pherastar FSX using a HTRF 337/620/665 optical module to excite the terbium donor at 337 nm, and record donor emission at 620 nm and acceptor fluorophore emission at 665 nm. From this the FRET ratio (acceptor 665 nm/donor 620 nm) for each data point was calculated. […] Competition curves were then fit to a 4 parameter logistic equation including a variable slope factor to determine the IC50 (compound concentration that inhibits 50% of AXL activity).

[4] = biological target: T4, Ba/F3 Pro B-cell line expressing TEL-human MERTK fusion domain (Homo sapiens, UniProt Q12866); type: cell-based; conditions: cell survival, 48 h, CellTiter-Glo; read-out: TEL-MERTK Ba/F3 IC50
T4 sequence (Q12866 587-858 limits assumed): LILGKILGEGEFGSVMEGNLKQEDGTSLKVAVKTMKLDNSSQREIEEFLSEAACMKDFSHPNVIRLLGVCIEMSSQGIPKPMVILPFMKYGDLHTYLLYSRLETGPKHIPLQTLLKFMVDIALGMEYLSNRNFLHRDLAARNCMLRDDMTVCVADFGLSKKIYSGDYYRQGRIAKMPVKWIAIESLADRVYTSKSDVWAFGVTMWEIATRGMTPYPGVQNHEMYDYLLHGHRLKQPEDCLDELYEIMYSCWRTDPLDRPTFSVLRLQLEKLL
Protocol: as §1
as §2, with “only.” for “only. Cells were maintained in RMPI 1640 (Corning 15-040-CV) culture media containing 10% heat inactivated semi-synthetic FBS (RMBIO FGR-BBT), 2 mM L-Glutamine (Sigma, G7513), 100 IU/mL Penicillin-10 mg/mL Streptomycin (Sigma, P4333), and 500 ng/mL Puromycin (Sigma, P8833). Experiments were performed in 50 μl growth media, including the test compounds of interest, and dispensing 5000 cells/well in logarithmic-phase growth into a 384 well white Optiplate (Perkin Elmer 6007299).”
as §3, with “Data were normalised to measurements in the absence of competing compound (0% inhibition).” left out

[5] = biological target: T5, Ba/F3 Pro B-cell line expressing BCR-human AXL kinase domain fusion protein (Homo sapiens, UniProt P30530); assay: Assay 5 Ba/F3 cell survival assay, BCR-Axl; type: cell-based; conditions: read-out: BCR-Axl Ba/F3 IC50, 48 h, CellTiter-Glo
T5 construct: P11274 (Breakpoint cluster region protein)
T5 sequence (P30530 536-807 limits assumed): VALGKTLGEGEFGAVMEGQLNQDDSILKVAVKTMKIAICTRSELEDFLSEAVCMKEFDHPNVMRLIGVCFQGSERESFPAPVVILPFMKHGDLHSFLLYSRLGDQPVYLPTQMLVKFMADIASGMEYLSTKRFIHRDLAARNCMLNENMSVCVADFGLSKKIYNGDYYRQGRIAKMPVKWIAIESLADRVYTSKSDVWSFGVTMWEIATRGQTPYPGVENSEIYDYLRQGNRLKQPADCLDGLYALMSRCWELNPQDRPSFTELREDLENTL
Protocol: as §1
as §2, with “only.” for “only. Cells were maintained in RMPI 1640 (Corning 15-040-CV) culture media containing 10% heat inactivated semi-synthetic FBS (RMBIO FGR-BBT), 2 mM L-Glutamine (Sigma, G7513), 100 IU/mL Penicillin-10 mg/mL Streptomycin (Sigma, P4333), and 500 ng/mL Puromycin (Sigma, P8833). Experiments were performed in 50 μl growth media, including the test compounds of interest, and dispensing 5000 cells/well in logarithmic-phase growth into a 384 well white Optiplate (Perkin Elmer 6007299).”
as §3, with “Data were normalised to measurements in the absence of competing compound (0% inhibition).” left out

T2 sequence (Q12866 527-999): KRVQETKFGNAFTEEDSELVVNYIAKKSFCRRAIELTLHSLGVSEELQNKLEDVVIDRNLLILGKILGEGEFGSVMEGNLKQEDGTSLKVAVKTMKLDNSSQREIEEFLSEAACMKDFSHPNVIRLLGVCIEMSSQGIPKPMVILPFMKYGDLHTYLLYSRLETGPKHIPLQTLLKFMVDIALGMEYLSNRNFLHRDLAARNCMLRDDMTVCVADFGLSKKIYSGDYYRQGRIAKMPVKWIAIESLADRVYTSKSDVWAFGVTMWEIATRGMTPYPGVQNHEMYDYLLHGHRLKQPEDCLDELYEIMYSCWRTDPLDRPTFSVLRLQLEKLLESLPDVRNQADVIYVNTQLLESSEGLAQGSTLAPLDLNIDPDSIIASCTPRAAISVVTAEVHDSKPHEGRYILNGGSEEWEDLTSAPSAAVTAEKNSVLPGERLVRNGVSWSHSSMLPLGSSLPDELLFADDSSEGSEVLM

| SMILES | IC50 [2] [µM] | IC50 [3] [µM] | IC50 [1] [µM] | IC50 [4] [µM] | IC50 [5] [µM] |
| --- | --- | --- | --- | --- | --- |
| O=C(Nc1ccc(Oc2ccnc3cnc(N4CCNCC4)cc23)cn1)c1cccn(-c2ccc(F)cc2)c1=O [Example 10, 1-(4-fluorophenyl)-2-oxo-N-[5-[(6-piperazin-1-yl-1,7-naphthyridin-4-yl)oxy]-2-pyridyl]pyridine-3-carboxamide] | 0.005 | 0.029 | 0.148 | 0.024 | 0.028 |
| CN1CCC(C(=O)Nc2cc3c(Oc4ccc(NC(=O)c5cccn(-c6ccc(F)cc6)c5=O)nc4)ccnc3cn2)C1 (centres unmarked) [Example 18, 1-(4-Fluorophenyl)-N-[5-[[6-[(1-methylpyrrolidine-3-carbonyl)amino]-1,7-naphthyridin-4-yl]oxy]-2-pyridyl]-2-oxo-pyridine-3-carboxamide] | 0.002 | 0.034 | 0.165 | 0.003 | – |
| CN1CCC(C(=O)Nc2cc3c(Oc4ccc(NC(=O)c5cccn(-c6ccc(F)cc6)c5=O)nc4)ccnc3cn2)CC1 [Example 18.1, 1-(4-fluorophenyl)-N-[5-[[6-[(1-methylpiperidine-4-carbonyl)amino]-1,7-naphthyridin-4-yl]oxy]-2-pyridyl]-2-oxo-pyridine-3-carboxamide] | 0.001 | 0.01 | 0.25 | 0.013 | – |
| CC(C)n1cc(C(=O)Nc2ccc(Oc3ccnc4cnc(C5CCN(C)CC5)cc34)cn2)c(=O)c(-c2ccc(F)cc2)c1 [Example 23, 5-(4-fluorophenyl)-1-isopropyl-N-[5-[[6-(1-methyl-4-piperidyl)-1,7-naphthyridin-4-yl]oxy]-2-pyridyl]-4-oxo-pyridine-3-carboxamide] | 0.003 | 0.012 | 0.429 | 0.002 | – |

Continued, in another order:

| IC50 [2] [µM] | IC50 [3] [µM] | SMILES | IC50 [1] [µM] | IC50 [4] [µM] | IC50 [5] [µM] |
| --- | --- | --- | --- | --- | --- |
| 0.004 | 0.028 | CN1CCC(NC(=O)c2cc3c(Oc4ccc(NC(=O)c5cccn(-c6ccc(F)cc6)c5=O)cc4)ccnc3cn2)CC1 [Example 8.1, 4-[4-[[1-(4-fluorophenyl)-2-oxo-pyridine-3-carbonyl]amino]phenoxy]-N-(1-methyl-4-piperidyl)-1,7-naphthyridine-6-carboxamide] | 0.048 | 0.017 | 0.007 |
| 0.01 | 0.01 | CC(C)n1cc(C(=O)Nc2ccc(Oc3ccnc4cnc(C(=O)NC5CCN(C)CC5)cc34)cc2)c(=O)n(-c2ccc(F)cc2)c1=O [Example 8.2, 4-[4-[[3-(4-fluorophenyl)-1-isopropyl-2,4-dioxo-pyrimidine-5-carbonyl]amino]phenoxy]-N-(1-methyl-4-piperidyl)-1,7-naphthyridine-6-carboxamide] | 0.12 | 0.03 | 0.003 |
| 0.014 | 0.011 | CC(C)n1cc(C(=O)Nc2ccc(Oc3ccnc4cnc(C(=O)NC5CCN(C)CC5)cc34)cc2)c(=O)n(-c2ccc(F)cn2)c1=O [Example 9, 4-[4-[[3-(5-Fluoro-2-pyridyl)-1-isopropyl-2,4-dioxo-pyrimidine-5-carbonyl]amino]phenoxy]-N-(1-methyl-4-piperidyl)-1,7-naphthyridine-6-carboxamide] | 0.252 | 0.085 | 0.006 |
| 0.012 | 0.013 | CC(C)n1cc(C(=O)Nc2ccc(Oc3ccnc4cnc(C(=O)NC5CCN(C)CC5)cc34)cc2)c(=O)n(-c2cc(F)cc(F)c2)c1=O [Example 9.1, 4-[4-[[3-(3,5-difluorophenyl)-1-isopropyl-2,4-dioxo-pyrimidine-5-carbonyl]amino]phenoxy]-N-(1-methyl-4-piperidyl)-1,7-naphthyridine-6-carboxamide] | > 2.5 | > 2.5 | 0.025 |
| 0.014 | – | CC(C)n1cc(C(=O)Nc2ccc(Oc3ccnc4cnc(C(=O)N[C@H]5CCN(C)C5)cc34)cn2)c(=O)n(-c2ccc(F)cc2)c1=O [Example 27.4, 4-[[6-[[3-(4-fluorophenyl)-1-isopropyl-2,4-dioxo-pyrimidine-5-carbonyl]amino]-3-pyridyl]oxy]-N-[(3S)-1-methylpyrrolidin-3-yl]-1,7-naphthyridine-6-carboxamide] | 0.377 | 0.044 | 0.014 |

Source: patent US20230203029A1 (priority 2020, published 2023)
